# Reference: publication PMC7358528, “Tuning Scorpion Toxin Selectivity: Switching From KV1.1 to KV1.3” (Frontiers in Pharmacology, 2020)
# Where two headings read alike, the source gives them in different places. Where a SMILES comes first, the peptide text is derived from it. Bridges are numbered along the chain shown (N, C = ends).
# Columns and labels:
# [1] = molecular target: T1, KV1.5 (Rattus norvegicus, UniProt P19024); assay: Two-electrode voltage clamp on KV1.5 expressed in Xenopus oocytes; type: cell-based; conditions: rKV1.5, Xenopus oocytes, up to 1 µM
# T1 construct: expressed in transfected cells; host or cells: Xenopus laevis oocytes injected with cRNA
# Method: (§1) Ion Channel Expression in Xenopus Oocytes
# (§2) The major pipeline of ion channel expression in oocytes was described previously ([Peigneur et al., 2011]). Briefly, for the expression of KV genes (rat (r)KV1.1, rKV1.2, human (h)KV1.3, rKV1.4, rKV1.5, and rKV1.6) in Xenopus laevis oocytes, linearized plasmids containing the respective gene sequences were transcribed using the T7 mMESSAGE-mMACHINE transcription kit (Ambion). 50 nl of cRNA solution (1 ng/nl) were injected into oocytes using a micro-injector (Drummond Scientific). The oocytes were incubated in ND96 solution: 96 mM NaCl, 2 mM KCl, 1.8 mM CaCl2, 2 mM MgCl2 and 5 mM HEPES, pH 7.4, supplemented with 50 mg/l gentamycin sulfate.
# (§3) Electrophysiological Recordings
# (§4) Two-electrode voltage-clamp recordings were performed at room temperature (18–22°C) using a Geneclamp 500 amplifier (Molecular Devices) controlled by a pClamp data acquisition system (Axon Instruments) as described ([Peigneur et al., 2011]). Bath solution composition was ND96. KV currents were evoked by 250-ms depolarization to 0 mV from a holding potential of −90 mV, followed by 250-ms pulses to −50 mV. For current–voltage relationship studies, currents were evoked by 10-mV depolarization steps. Concentration–response curves were constructed, in which the percentage of current inhibition was plotted as a function of toxin concentration. […]
# [2] = molecular target: T2, KV1.4 (Rattus norvegicus, UniProt P15385); assay: Two-electrode voltage clamp on KV1.4 expressed in Xenopus oocytes; type: cell-based; conditions: rKV1.4, Xenopus oocytes, up to 1 µM
# T2 construct: expressed in transfected cells; host or cells: Xenopus laevis oocytes injected with cRNA
# Method: as §1, §2, §3, §4
# [3] = molecular target: T3, KV1.2 (Rattus norvegicus, UniProt P63142); assay: Two-electrode voltage clamp on KV1.2 expressed in Xenopus oocytes; type: cell-based
# T3 construct: expressed in transfected cells; host or cells: Xenopus laevis oocytes injected with cRNA
# Method: as §1, §2, §3
# (§5) Two-electrode voltage-clamp recordings were performed at room temperature (18–22°C) using a Geneclamp 500 amplifier (Molecular Devices) controlled by a pClamp data acquisition system (Axon Instruments) as described ([Peigneur et al., 2011]). Bath solution composition was ND96. KV currents were evoked by 250-ms depolarization to 0 mV from a holding potential of −90 mV, followed by 250-ms pulses to −50 mV. For current–voltage relationship studies, currents were evoked by 10-mV depolarization steps. Concentration–response curves were constructed, in which the percentage of current inhibition was plotted as a function of toxin concentration. Data were fitted with the Hill equation: y = 100/[1 + (IC50/[toxin])^h], where y is the amplitude of the toxin-induced effect, [toxin] is toxin concentration, and h is the Hill coefficient. Comparison of two sample means was performed using a paired Student’s t-test (p-value of 0.05 was used as a threshold of significance). All data were obtained in at least three independent experiments (n ≥ 3) and are presented as mean ± standard error of the mean.
# [4] = molecular target: T4, KV1.6 (Rattus norvegicus, UniProt P17659); assay: Two-electrode voltage clamp on KV1.6 expressed in Xenopus oocytes; type: cell-based; conditions: mean ± SEM, n ≥ 3
# T4 construct: expressed in transfected cells; host or cells: Xenopus laevis oocytes injected with cRNA
# Method: as §1, §2, §3, §4
# [5] = molecular target: T5, KV1.3 (Homo sapiens, UniProt P22001); assay: Two-electrode voltage clamp on KV1.3 expressed in Xenopus oocytes; type: cell-based; parameters: expressed in transfected cells; host or cells: Xenopus laevis oocytes injected with cRNA; conditions: for inhibition at 0.01 µM: 10 nM, KV1.3, Xenopus oocytes, read-out: inhibition of potassium current
# Method: as §1, §2, §3, §5
# [6] = molecular target: T6, KV1.1 (Rattus norvegicus, UniProt P10499); assay: Two-electrode voltage clamp on KV1.1 expressed in Xenopus oocytes; type: cell-based; conditions: for IC50: rKV1.1, Xenopus oocytes, two-electrode voltage clamp, ND96 pH 7.4, 18–22°C, 0 mV from −90 mV
# T6 construct: expressed in transfected cells; host or cells: Xenopus laevis oocytes injected with cRNA
# Method: as §1, §2, §3, §5
# [7] = molecular target: rat KV1.1 (rat) (UniProt P10499)
# [8] = molecular target: rat KV1.2 (rat) (UniProt P63142)
# [9] = molecular target: rat KV1.6 (rat) (UniProt P17659)
# [10] = molecular target: T5, KV1.3
# [11] = molecular target: rat KV1.1 (rat) (UniProt P10499); remark: listed apart in the source
# [12] = molecular target: rat KV1.1 (rat) (UniProt P10499); remark: listed apart in the source
# [13] = molecular target: rat KV1.2 (rat) (UniProt P63142); remark: listed apart in the source
# [14] = molecular target: rat KV1.6 (rat) (UniProt P17659); remark: listed apart in the source
# [15] = molecular target: T5, KV1.3; remark: listed apart in the source
# T3 sequence (P63142 whole entry): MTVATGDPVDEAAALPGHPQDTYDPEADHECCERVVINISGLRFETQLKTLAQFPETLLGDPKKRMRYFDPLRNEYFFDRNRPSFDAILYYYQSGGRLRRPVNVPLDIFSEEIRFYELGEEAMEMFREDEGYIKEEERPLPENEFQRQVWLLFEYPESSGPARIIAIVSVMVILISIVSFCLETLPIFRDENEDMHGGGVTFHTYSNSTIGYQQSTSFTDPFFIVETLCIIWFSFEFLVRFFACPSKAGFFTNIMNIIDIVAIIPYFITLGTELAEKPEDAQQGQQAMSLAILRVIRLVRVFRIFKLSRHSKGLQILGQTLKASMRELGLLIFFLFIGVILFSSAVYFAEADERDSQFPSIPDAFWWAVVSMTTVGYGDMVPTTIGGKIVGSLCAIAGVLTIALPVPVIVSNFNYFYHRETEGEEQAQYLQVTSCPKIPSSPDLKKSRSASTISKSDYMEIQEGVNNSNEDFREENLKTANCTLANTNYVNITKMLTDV
# Sequence of rat KV1.1 (rat) (P10499 whole entry): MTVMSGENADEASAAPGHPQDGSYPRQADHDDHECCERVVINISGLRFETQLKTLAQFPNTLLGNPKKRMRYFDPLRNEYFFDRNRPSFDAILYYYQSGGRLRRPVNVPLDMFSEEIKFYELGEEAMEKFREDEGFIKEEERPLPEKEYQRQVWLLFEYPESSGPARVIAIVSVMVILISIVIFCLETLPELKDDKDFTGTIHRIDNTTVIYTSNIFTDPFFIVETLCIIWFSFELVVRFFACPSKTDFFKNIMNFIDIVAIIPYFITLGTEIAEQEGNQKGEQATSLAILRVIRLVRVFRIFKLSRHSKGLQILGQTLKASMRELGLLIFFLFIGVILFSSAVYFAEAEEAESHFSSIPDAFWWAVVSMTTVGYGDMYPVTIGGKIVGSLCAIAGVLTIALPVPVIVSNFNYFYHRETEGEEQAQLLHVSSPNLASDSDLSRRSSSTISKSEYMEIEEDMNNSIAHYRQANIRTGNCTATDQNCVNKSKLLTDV
# T6 sequence (P10499 whole entry): as above
# T5 sequence (P22001 whole entry): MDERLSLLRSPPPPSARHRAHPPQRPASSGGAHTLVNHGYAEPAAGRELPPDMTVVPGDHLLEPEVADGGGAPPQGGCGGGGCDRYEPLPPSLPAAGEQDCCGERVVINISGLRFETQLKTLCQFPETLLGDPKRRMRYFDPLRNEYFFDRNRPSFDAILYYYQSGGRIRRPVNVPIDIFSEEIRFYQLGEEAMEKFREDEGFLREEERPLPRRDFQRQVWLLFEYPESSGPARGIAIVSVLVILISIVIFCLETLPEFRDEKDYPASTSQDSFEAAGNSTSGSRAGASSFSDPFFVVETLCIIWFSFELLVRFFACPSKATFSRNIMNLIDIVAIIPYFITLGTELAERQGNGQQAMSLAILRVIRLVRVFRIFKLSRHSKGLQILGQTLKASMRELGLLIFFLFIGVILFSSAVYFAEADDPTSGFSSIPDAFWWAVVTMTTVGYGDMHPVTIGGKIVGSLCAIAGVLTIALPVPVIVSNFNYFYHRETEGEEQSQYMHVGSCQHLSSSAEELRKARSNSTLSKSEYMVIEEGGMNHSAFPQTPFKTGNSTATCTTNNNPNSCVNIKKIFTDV
# Sequence of rat KV1.6 (rat) (P17659 whole entry): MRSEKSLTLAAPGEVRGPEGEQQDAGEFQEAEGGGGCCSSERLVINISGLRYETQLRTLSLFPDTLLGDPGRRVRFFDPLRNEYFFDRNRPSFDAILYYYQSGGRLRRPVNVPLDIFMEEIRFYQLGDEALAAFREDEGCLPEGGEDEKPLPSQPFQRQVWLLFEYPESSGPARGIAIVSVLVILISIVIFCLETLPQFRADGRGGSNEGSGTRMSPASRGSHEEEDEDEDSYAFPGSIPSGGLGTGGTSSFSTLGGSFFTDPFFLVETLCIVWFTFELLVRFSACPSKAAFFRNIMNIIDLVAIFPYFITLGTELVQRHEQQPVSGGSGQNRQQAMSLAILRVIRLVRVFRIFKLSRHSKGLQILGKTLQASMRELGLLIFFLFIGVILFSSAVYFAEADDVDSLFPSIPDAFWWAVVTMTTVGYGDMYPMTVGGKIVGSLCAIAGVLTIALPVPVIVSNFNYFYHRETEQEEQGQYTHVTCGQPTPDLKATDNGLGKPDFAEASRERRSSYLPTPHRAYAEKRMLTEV
# T4 sequence (P17659 whole entry): as above
# Sequence of rat KV1.2 (rat) (P63142 whole entry): as the sequence (P63142 whole entry) above
# T1 sequence (P19024 whole entry): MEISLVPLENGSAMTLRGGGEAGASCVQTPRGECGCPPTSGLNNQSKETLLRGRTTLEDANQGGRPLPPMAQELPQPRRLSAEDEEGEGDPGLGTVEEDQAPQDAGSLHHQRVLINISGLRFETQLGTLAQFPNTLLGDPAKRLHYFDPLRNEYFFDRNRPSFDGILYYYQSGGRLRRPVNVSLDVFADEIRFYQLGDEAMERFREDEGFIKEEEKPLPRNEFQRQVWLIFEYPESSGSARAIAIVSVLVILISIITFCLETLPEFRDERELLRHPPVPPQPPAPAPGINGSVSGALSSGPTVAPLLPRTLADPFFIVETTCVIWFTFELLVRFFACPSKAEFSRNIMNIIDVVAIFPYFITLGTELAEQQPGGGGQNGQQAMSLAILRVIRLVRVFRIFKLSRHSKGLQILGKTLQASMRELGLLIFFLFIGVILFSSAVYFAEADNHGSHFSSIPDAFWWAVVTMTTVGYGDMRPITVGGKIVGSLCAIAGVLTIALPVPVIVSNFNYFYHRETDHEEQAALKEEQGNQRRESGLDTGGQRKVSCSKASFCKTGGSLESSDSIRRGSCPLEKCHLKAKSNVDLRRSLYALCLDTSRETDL
# T2 sequence (P15385 whole entry): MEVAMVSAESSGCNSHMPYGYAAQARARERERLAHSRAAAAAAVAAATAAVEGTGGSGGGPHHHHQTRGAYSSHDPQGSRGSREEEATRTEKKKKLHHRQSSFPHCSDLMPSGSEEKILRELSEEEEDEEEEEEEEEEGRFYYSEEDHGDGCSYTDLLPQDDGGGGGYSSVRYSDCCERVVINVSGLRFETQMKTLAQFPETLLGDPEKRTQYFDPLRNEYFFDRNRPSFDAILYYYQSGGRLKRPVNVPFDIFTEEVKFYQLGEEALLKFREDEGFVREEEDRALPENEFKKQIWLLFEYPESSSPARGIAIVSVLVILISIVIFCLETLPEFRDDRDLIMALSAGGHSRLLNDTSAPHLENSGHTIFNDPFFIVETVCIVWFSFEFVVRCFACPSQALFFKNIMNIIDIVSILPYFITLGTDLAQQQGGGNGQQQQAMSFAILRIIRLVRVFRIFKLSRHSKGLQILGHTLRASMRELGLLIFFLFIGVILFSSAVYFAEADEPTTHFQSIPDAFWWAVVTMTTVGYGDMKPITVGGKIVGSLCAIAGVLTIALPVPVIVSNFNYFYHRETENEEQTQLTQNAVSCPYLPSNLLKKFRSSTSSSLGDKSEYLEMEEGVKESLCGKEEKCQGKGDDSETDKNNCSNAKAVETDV
compound,measurement,setting,value
"CC[C@H](C)[C@H](NC(=O)CNC(=O)[C@@H](N)C(C)C)C(=O)N[C@@H](CC(N)=O)C(=O)N[C@H](C(=O)N[C@@H](CCCCN)C(=O)N[C@H]1CSSC[C@@H]2NC(=O)[C@H](CCCCN)NC(=O)CNC(=O)[C@H](Cc3ccccc3)NC(=O)[C@H](CCCNC(=N)N)NC(=O)[C@H](CCSC)NC(=O)CNC(=O)[C@H](C)NC(=O)[C@H](CC(=O)O)NC(=O)[C@H](C)NC(=O)[C@@H]3CSSC[C@@H](C(=O)N[C@H](C(=O)N4CCC[C@H]4C(=O)N[C@@H](CCCCN)C(=O)O)[C@@H](C)O)NC(=O)[C@H](CCCNC(=N)N)NC(=O)[C@H](CSSC[C@H](NC(=O)[C@H](C)NC(=O)CNC(=O)[C@H](CO)NC(=O)[C@H](Cc4c[nH]cn4)NC(=O)[C@H](CCCCN)NC1=O)C(=O)N[C@@H](CC(C)C)C(=O)N[C@@H](C)C(=O)N1CCC[C@H]1C(=O)N3)NC(=O)[C@H](CCCCN)NC(=O)CNC(=O)[C@H](CC(N)=O)NC(=O)[C@H]([C@@H](C)CC)NC2=O)C(C)C [MeKTx13-3_AAAR] (H-VGINVKCKHSGACLAPCADAGMRFGKCINGKCRCTPK-OH; disulfide 7-27, 13-32, 17-34)",IC50,[1],> 1000 nM
same,IC50,[2],> 1000 nM
same,inhibition at 0.01 µM,"[3]; 10 nM, KV1.2, Xenopus oocytes, read-out: inhibition of potassium current",~5%
same,IC50,"[3]; rKV1.2, Xenopus oocytes, two-electrode voltage clamp, ND96 pH 7.4, 18–22°C, 0 mV from −90 mV, mean ± SEM, n ≥ 3",208 ± 15.2 nM
same,IC50,"[4]; rKV1.6, Xenopus oocytes, two-electrode voltage clamp, ND96 pH 7.4, 18–22°C, 0 mV from −90 mV",1520 ± 183 nM
same,inhibition at 0.01 µM,[5],~50%
same,IC50,"[5]; hKV1.3, Xenopus oocytes, two-electrode voltage clamp, ND96 pH 7.4, 18–22°C, 0 mV from −90 mV, mean ± SEM, n ≥ 3",9.1 ± 0.4 nM
same,KV1.1/KV1.3 selectivity factor,[5]; ratio of IC50 values KV1.1/KV1.3,60
same,inhibition at 0.01 µM,"[6]; 10 nM, KV1.1, Xenopus oocytes, read-out: inhibition of potassium current",~15%
same,IC50,"[6]; mean ± SEM, n ≥ 3",541 ± 48.6 nM
"CC[C@H](C)[C@H](NC(=O)CNC(=O)[C@@H](N)C(C)C)C(=O)N[C@@H](CC(N)=O)C(=O)N[C@H](C(=O)N[C@@H](CCCCN)C(=O)N[C@H]1CSSC[C@@H]2NC(=O)[C@H](CCCCN)NC(=O)CNC(=O)[C@H](Cc3ccccc3)NC(=O)[C@H](CCCNC(=N)N)NC(=O)[C@H](CCSC)NC(=O)CNC(=O)[C@H](C)NC(=O)[C@H](CC(=O)O)NC(=O)[C@H](CCCCN)NC(=O)[C@@H]3CSSC[C@@H](C(=O)N[C@H](C(=O)N4CCC[C@H]4C(=O)N[C@@H](CCCCN)C(N)=O)[C@@H](C)O)NC(=O)[C@H](CC(=O)O)NC(=O)[C@H](CSSC[C@H](NC(=O)[C@H](CCC(N)=O)NC(=O)CNC(=O)[C@H](CO)NC(=O)[C@H](Cc4c[nH]cn4)NC(=O)[C@H](CCCCN)NC1=O)C(=O)N[C@@H](CC(C)C)C(=O)N[C@@H](CCCCN)C(=O)N1CCC[C@H]1C(=O)N3)NC(=O)[C@H](CCCCN)NC(=O)CNC(=O)[C@H](CC(N)=O)NC(=O)[C@H]([C@@H](C)CC)NC2=O)C(C)C [MeKTx13-3] (H-VGINVKCKHSGQCLKPCKDAGMRFGKCINGKCDCTPK-NH2; disulfide 7-27, 13-32, 17-34; N-terminus and C-terminus assumed)",Hill coefficient,"[3]; KV1.2 concentration–response, mean ± SEM, n ≥ 3",1.3 ± 0.3
same,Hill coefficient,[4]; KV1.6 concentration–response,1.0 ± 0.1
same,inhibition at 0.01 µM,[5],~50%
same,Hill coefficient,"[5]; KV1.3 concentration–response, mean ± SEM, n ≥ 3",0.8 ± 0.2
same,Hill coefficient,"[6]; KV1.1 concentration–response, mean ± SEM, n ≥ 3",0.9 ± 0.1
Recombinant MeKTx13-3 (peptide),"percent of potassium current blocked at 10 nM toxin, two-electrode voltage clamp, X. laevis oocytes",[7],> 95%
same,"percent of potassium current blocked at 10 nM toxin, two-electrode voltage clamp, X. laevis oocytes",[8],25%
same,"percent of potassium current blocked at 10 nM toxin, two-electrode voltage clamp, X. laevis oocytes",[9],15%
same,"percent of potassium current blocked at 10 nM toxin, two-electrode voltage clamp, X. laevis oocytes",[10],50%
same,"IC50 of inhibition of potassium current, two-electrode voltage clamp, X. laevis oocytes",[11],6.7 nM
"MeKTx13-3, natural toxin from Mesobuthus eupeus venom (peptide)","percent of potassium current blocked at 10 nM toxin, two-electrode voltage clamp, X. laevis oocytes",[7],> 95%
same,"IC50 of inhibition of potassium current, two-electrode voltage clamp, X. laevis oocytes",[12],1.9 nM
same,"IC50 of inhibition of potassium current, two-electrode voltage clamp, X. laevis oocytes",[13],106 nM
same,"IC50 of inhibition of potassium current, two-electrode voltage clamp, X. laevis oocytes",[14],63.4 nM
same,"IC50 of inhibition of potassium current, two-electrode voltage clamp, X. laevis oocytes",[15],8.9 nM
"CC[C@H](C)[C@H](NC(=O)CNC(=O)[C@@H](N)C(C)C)C(=O)N[C@@H](CC(N)=O)C(=O)N[C@H](C(=O)N[C@@H](CCCCN)C(=O)N[C@H]1CSSC[C@@H]2NC(=O)[C@H](CCCCN)NC(=O)CNC(=O)[C@H](Cc3ccccc3)NC(=O)[C@H](CCCNC(=N)N)NC(=O)[C@H](CCSC)NC(=O)CNC(=O)[C@H](C)NC(=O)[C@H](CC(=O)O)NC(=O)[C@H](CCCCN)NC(=O)[C@@H]3CSSC[C@@H](C(=O)N[C@H](C(=O)N4CCC[C@H]4C(=O)N[C@@H](CCCCN)C(=O)O)[C@@H](C)O)NC(=O)[C@H](CC(=O)O)NC(=O)[C@H](CSSC[C@H](NC(=O)[C@H](CCC(N)=O)NC(=O)CNC(=O)[C@H](CO)NC(=O)[C@H](Cc4c[nH]cn4)NC(=O)[C@H](CCCCN)NC1=O)C(=O)N[C@@H](CC(C)C)C(=O)N[C@@H](CCCCN)C(=O)N1CCC[C@H]1C(=O)N3)NC(=O)[C@H](CCCCN)NC(=O)CNC(=O)[C@H](CC(N)=O)NC(=O)[C@H]([C@@H](C)CC)NC2=O)C(C)C [Recombinant MeKTx13-3] (H-VGINVKCKHSGQCLKPCKDAGMRFGKCINGKCDCTPK-OH; disulfide 7-27, 13-32, 17-34)",inhibition at 0.01 µM,[5],~50%
same,IC50,"[6]; mean ± SEM, n ≥ 3",6.7 ± 2.7 nM
